Measurements as given in patent EP4682145A1, “BENZOHETEROCYCLIC COMPOUND, AND PREPARATION METHOD THEREFOR AND USE THEREOF” (Cascade Pharmaceuticals, Inc., priority 2023, dated 2024).

Biological target: T1, human FFAR1 (GPR40) (Homo sapiens, UniProt O14842)
T1 construct: Flag; expressed in transfected cells; host or cells: HEK293T
Assay: NFAT-RE-based reporter gene activity assay (Dual-Glo luciferase) for GPR40 agonistic activity in co-transfected HEK293T cells
Assay type: cell-based
Details: 4-hour treatment
How it was run: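 HEK293T cells co-transfected with human FFAR1, NFAT-RE firefly luciferase and TK-Renilla plasmids; 24 h later treated 4 h with 10 half-log compound dilutions from 1 µM. Firefly/Renilla ratio normalised to DMSO; EC50 from four-parameter fit.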

T1 sequence (O14842 whole entry): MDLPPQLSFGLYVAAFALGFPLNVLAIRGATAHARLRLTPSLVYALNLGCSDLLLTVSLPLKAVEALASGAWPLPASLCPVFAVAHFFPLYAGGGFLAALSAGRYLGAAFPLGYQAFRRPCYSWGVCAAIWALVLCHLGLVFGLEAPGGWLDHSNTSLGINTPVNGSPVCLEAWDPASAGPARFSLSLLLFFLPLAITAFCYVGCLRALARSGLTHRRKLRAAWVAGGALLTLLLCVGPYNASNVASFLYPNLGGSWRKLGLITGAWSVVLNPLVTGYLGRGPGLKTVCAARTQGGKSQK

SMILES	EC50 [µM]	Efficacy (%) (class symbols)	Efficacy (%) (numeric values of positive controls)
COc1ccc(F)c(N2CCC(c3oc4cc(C(CC(=O)O)C5CC5)ccc4c3CC(C)OC)CC2)c1 (centres unmarked) [Compound 394]	> 0.5	†† (150 ≥ Efficacy (%) > 100)	–
COc1ccc(F)c(N2CCC(c3oc4cc(C(CC(=O)O)C5CC5)ccc4c3CC(C)=O)CC2)c1 (centres unmarked) [Compound 395]	0.1 to 0.5	† (100 ≥ Efficacy (%) > 50)	–
COc1cccc(N2CCC(c3oc4cc([C@@H](CC(=O)O)C5CC5)ccc4c3COC(=O)C(C)(C)C)CC2)c1 [Compound 398]	0.1 to 0.5	††† (Efficacy (%) > 150)	–
COc1cccc(N2CCC(c3oc4cc([C@@H](CC(=O)O)C5CC5)ccc4c3C3OCC(C)(C)CO3)CC2)c1 [Compound 399]	0.1 to 0.5	†† (150 ≥ Efficacy (%) > 100)	–
COc1cccc(N2CCC(c3oc4cc(C(CC(=O)O)C5CC5)ccc4c3C3O[C@@H](C)[C@H](C)O3)CC2)c1 (some centres unmarked) [Compound 400]	0.1 to 0.5	† (100 ≥ Efficacy (%) > 50)	–
COc1cccc(N2CCC(c3oc4cc([C@@H](CC(=O)O)C5CC5)ccc4c3COc3ccccc3)CC2)c1 [Compound 404]	0.1 to 0.5	†† (150 ≥ Efficacy (%) > 100)	–
COc1cccc(N2CCC(c3oc4cc([C@@H](CC(=O)O)C5CC5)ccc4c3C(C)OC)CC2)c1 (some centres unmarked) [Compound 406]	0.1 to 0.5	††† (Efficacy (%) > 150)	–
CCOC(C)c1c(C2CCN(c3cccc(OC)c3)CC2)oc2cc([C@@H](CC(=O)O)C3CC3)ccc12 (some centres unmarked) [Compound 407]	0.1 to 0.5	††† (Efficacy (%) > 150)	–
CCCOC(C)c1c(C2CCN(c3cccc(OC)c3)CC2)oc2cc([C@@H](CC(=O)O)C3CC3)ccc12 (some centres unmarked) [Compound 408]	0.1 to 0.5	††† (Efficacy (%) > 150)	–
COc1cccc(N2CCC(c3oc4cc([C@@H](CC(=O)O)C5CC5)ccc4c3C(C)OCC(C)C)CC2)c1 (some centres unmarked) [Compound 409]	0.01 to 0.1	††† (Efficacy (%) > 150)	–
CCCCOC(C)c1c(C2CCN(c3cccc(OC)c3)CC2)oc2cc([C@@H](CC(=O)O)C3CC3)ccc12 (some centres unmarked) [Compound 410]	0.1 to 0.5	††† (Efficacy (%) > 150)	–
COc1cccc(N2CCC(c3oc4cc([C@@H](CC(=O)O)C5CC5)ccc4c3C(C)OCC(C)(C)C)CC2)c1 (some centres unmarked) [Compound 411]	0.01 to 0.1	†† (150 ≥ Efficacy (%) > 100)	–
COc1cccc(N2CCC(c3oc4cc([C@@H](CC(=O)O)C5CC5)ccc4c3C(C)OCCC(C)(C)C)CC2)c1 (some centres unmarked) [Compound 412]	0.1 to 0.5	††† (Efficacy (%) > 150)	–
CCC(C)COC(C)c1c(C2CCN(c3cccc(OC)c3)CC2)oc2cc([C@@H](CC(=O)O)C3CC3)ccc12 (some centres unmarked) [Compound 413]	0.1 to 0.5	††† (Efficacy (%) > 150)	–
COc1cccc(N2CCC(c3oc4cc([C@@H](CC(=O)O)C5CC5)ccc4c3C(C)OCC[C@@H](C)CCCC(C)C)CC2)c1 (some centres unmarked) [Compound 414]	> 0.5	††† (Efficacy (%) > 150)	–
COc1cccc(N2CCC(c3oc4cc([C@@H](CC(=O)O)C5CC5)ccc4c3C(C)OCC[C@@H](C)CCC=C(C)C)CC2)c1 (some centres unmarked) [Compound 415]	> 0.5	††† (Efficacy (%) > 150)	–
CCC(OCC(C)(C)C)c1c(C2CCN(c3cccc(OC)c3)CC2)oc2cc([C@@H](CC(=O)O)C3CC3)ccc12 (some centres unmarked) [Compound 416]	0.01 to 0.1	†† (150 ≥ Efficacy (%) > 100)	–
COc1cccc(N2CCC(c3oc4cc([C@@H](CC(=O)O)C5CC5)ccc4c3C(C)OCC3CC3)CC2)c1 (some centres unmarked) [Compound 417]	0.1 to 0.5	††† (Efficacy (%) > 150)	–
COc1cccc(N2CCC(c3oc4cc([C@@H](CC(=O)O)C5CC5)ccc4c3C(C)OCC3CCC3)CC2)c1 (some centres unmarked) [Compound 418]	0.01 to 0.1	††† (Efficacy (%) > 150)	–
COc1cccc(N2CCC(c3oc4cc([C@@H](CC(=O)O)C5CC5)ccc4c3C(C)OCC3CCCC3)CC2)c1 (some centres unmarked) [Compound 419]	0.01 to 0.1	††††	–
COc1cccc(N2CCC(c3oc4cc([C@@H](CC(=O)O)C5CC5)ccc4c3C(C)OCc3ccco3)CC2)c1 (some centres unmarked) [Compound 420]	0.1 to 0.5	†† (150 ≥ Efficacy (%) > 100)	–
COc1cccc(N2CCC(c3oc4cc([C@@H](CC(=O)O)C5CC5)ccc4c3C(C)OCc3cccs3)CC2)c1 (some centres unmarked) [Compound 421]	0.1 to 0.5	††† (Efficacy (%) > 150)	–

SMILES	EC50 [µM]	Efficacy (%) (class symbols)	Efficacy (%) (numeric values of positive controls)
COc1cccc(N2CCC(c3oc4cc([C@@H](CC(=O)O)C5CC5)ccc4c3C(O)C(C)(C)C)CC2)c1 (some centres unmarked) [Compound 423]	0.1 to 0.5	† (100 ≥ Efficacy (%) > 50)	–
COc1cccc(N2CCC(c3oc4cc([C@@H](CC(=O)O)C5CC5)ccc4c3C(O)c3ccccc3)CC2)c1 (some centres unmarked) [Compound 424]	> 0.5	†† (150 ≥ Efficacy (%) > 100)	–
COc1cccc(N2CCC(c3oc4cc([C@@H](CC(=O)O)C5CC5)ccc4c3C(OC)c3ccccc3)CC2)c1 (some centres unmarked) [Compound 425]	0.1 to 0.5	†† (150 ≥ Efficacy (%) > 100)	–
COc1cccc(N2CCC(c3oc4cc([C@@H](CC(=O)O)C5CC5)ccc4c3C(OCC(C)C)c3ccccc3)CC2)c1 (some centres unmarked) [Compound 426]	0.01 to 0.1	††† (Efficacy (%) > 150)	–
COc1cccc(N2CCC(c3oc4cc([C@@H](CC(=O)O)C5CC5)ccc4c3C(OCC(C)C)c3ccc(C)cc3)CC2)c1 (some centres unmarked) [Compound 427]	0.1 to 0.5	††† (Efficacy (%) > 150)	–
COc1cccc(N2CCC(c3oc4cc([C@@H](CC(=O)O)C5CC5)ccc4c3C(OCC(C)C)c3cccc(C)c3)CC2)c1 (some centres unmarked) [Compound 428]	0.1 to 0.5	†† (150 ≥ Efficacy (%) > 100)	–
COc1cccc(N2CCC(c3oc4cc([C@@H](CC(=O)O)C5CC5)ccc4c3C(OCC(C)C)c3ccccc3C)CC2)c1 (some centres unmarked) [Compound 429]	0.1 to 0.5	††† (Efficacy (%) > 150)	–
COc1cccc(N2CCC(c3oc4cc([C@@H](CC(=O)O)C5CC5)ccc4c3C(OCC(C)C)c3cccc(F)c3)CC2)c1 (some centres unmarked) [Compound 430]	0.1 to 0.5	††† (Efficacy (%) > 150)	–
COc1cccc(N2CCC(c3oc4cc([C@@H](CC(=O)O)C5CC5)ccc4c3C(OCC(C)C)c3ccc(F)cc3)CC2)c1 (some centres unmarked) [Compound 431]	0.1 to 0.5	†† (150 ≥ Efficacy (%) > 100)	–
COc1cccc(N2CCC(c3oc4cc([C@@H](CC(=O)O)C5CC5)ccc4c3C(OCC(C)C)c3ccccc3F)CC2)c1 (some centres unmarked) [Compound 432]	0.01 to 0.1	††† (Efficacy (%) > 150)	–
COc1cccc(N2CCC(c3oc4cc([C@@H](CC(=O)O)C5CC5)ccc4c3CNCC(C)(C)C)CC2)c1 [Compound 435]	0.01 to 0.1	†† (150 ≥ Efficacy (%) > 100)	–
COc1cccc(N2CCC(c3oc4cc([C@@H](CC(=O)O)C5CC5)ccc4c3CNC(=O)C(C)(C)C)CC2)c1 [Compound 436]	> 0.5	†† (150 ≥ Efficacy (%) > 100)	–
COc1cccc(N2CCC(c3oc4cc([C@@H](CC(=O)O)C5CC5)ccc4c3CN(C)CC(C)(C)C)CC2)c1 [Compound 438]	0.01 to 0.1	†† (150 ≥ Efficacy (%) > 100)	–
COc1cccc(N2CCC(c3oc4cc([C@@H](CC(=O)O)C5CC5)ccc4c3C(C)N(C)CC(C)(C)C)CC2)c1 (some centres unmarked) [Compound 439]	0.1 to 0.5	†† (150 ≥ Efficacy (%) > 100)	–
COc1cccc(N2CCC(c3oc4cc([C@@H](CC(=O)O)C5CC5)ccc4c3CN(CC(C)(C)C)C(C)=O)CC2)c1 [Compound 442]	0.1 to 0.5	†† (150 ≥ Efficacy (%) > 100)	–
COc1cccc(N2CCC(c3oc4cc([C@@H](CC(=O)O)C5CC5)ccc4c3CN(CC(C)(C)C)c3cccc(Cl)c3)CC2)c1 [Compound 447]	0.1 to 0.5	†† (150 ≥ Efficacy (%) > 100)	–
COc1cccc(N2CCC(c3oc4cc([C@@H](CC(=O)O)C5CC5)ccc4c3CN(C(=O)C(C)(C)C)c3cccc(Cl)c3)CC2)c1 [Compound 448]	0.1 to 0.5	†† (150 ≥ Efficacy (%) > 100)	–
COc1cccc(N2CCC(c3oc4cc(C(CC(=O)O)C5CC5)ccc4c3Cc3nnc(C(C)(C)C)o3)CC2)c1 (centres unmarked) [Compound 450]	0.1 to 0.5	† (100 ≥ Efficacy (%) > 50)	–
CCCCCCCC(C)(C)c1nnc(-c2c(C3CCN(c4cccc(OC)c4)CC3)oc3cc(C(CC(=O)O)C4CC4)ccc23)o1 (centres unmarked) [Compound 451]	0.01 to 0.1	†† (150 ≥ Efficacy (%) > 100)	–
CCCCCCC(C)(C)c1nnc(-c2c(C3CCN(c4cccc(OC)c4)CC3)oc3cc(C(CC(=O)O)C4CC4)ccc23)o1 (centres unmarked) [Compound 452]	0.01 to 0.1	†† (150 ≥ Efficacy (%) > 100)	–
COc1ccc(C(=O)N(CC(C)(C)C)c2cccc(C)n2)c(N2CCC(COc3cc([C@@H](CC(=O)O)C4CC4)ccn3)CC2)c1 [SCO-267, SCO267, reference compound]	0.01 to 0.1	–	100
